Experimental data: paper PMC12267056 (Nature, 2025)
Several values for one entry are separate records, joined by “and”; a condition that tells them apart may be missing. Identical values can stand only once. Like-named read-outs stand apart in the source and are kept apart here.

Experiments:
[1] = biological target: T1, human SLC35B1 (wild type) (Homo sapiens, UniProt P78383); test: IC50 for competitive inhibition of [3H]ADP uptake in proteoliposomes; assay type: biochemical; parameters: made in house; host or cells: Saccharomyces cerevisiae FGY217
T1 sequence (P78383 1-322): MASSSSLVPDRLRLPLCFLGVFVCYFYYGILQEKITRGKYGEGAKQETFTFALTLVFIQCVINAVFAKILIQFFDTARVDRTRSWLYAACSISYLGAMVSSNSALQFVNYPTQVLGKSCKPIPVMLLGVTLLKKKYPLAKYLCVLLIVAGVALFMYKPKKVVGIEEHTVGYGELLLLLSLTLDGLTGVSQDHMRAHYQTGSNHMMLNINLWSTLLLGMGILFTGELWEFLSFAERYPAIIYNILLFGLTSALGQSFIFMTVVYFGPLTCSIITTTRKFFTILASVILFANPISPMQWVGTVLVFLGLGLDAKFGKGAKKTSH

[2] = biological target: T1, human SLC35B1 (wild type); test: Competitive uptake assay: [3H]ADP uptake with 1 mM cold nucleotide; assay type: biochemical; parameters: made in house; host or cells: Saccharomyces cerevisiae FGY217; conditions: competitor 1mM; sheet ED 6F; SLC35B1 proteoliposomes
[3] = biological target: T1, human SLC35B1 (wild type); assay type: binding; parameters: made in house; host or cells: Saccharomyces cerevisiae FGY217; conditions: for GFP fluorescence after heating (source data Fig 1B): 1 mM substrate
[4] = biological target: T1, human SLC35B1 (wild type); test: [3H]ADP/ATP exchange kinetics (Michaelis–Menten); assay type: biochemical; parameters: made in house; host or cells: Saccharomyces cerevisiae FGY217
[5] = biological target: T1, human SLC35B1 (wild type); test: STD NMR of nucleotide interaction with SLC35B1 proteoliposomes; assay type: binding; parameters: made in house; host or cells: Saccharomyces cerevisiae FGY217
[6] = biological target: T2, SLC35B1-Fv-MBP fusion protein (Homo sapiens, UniProt P78383); test: IC50 for ADP competition of [3H]-ADP/ATP transport, SLC35B1-Fv-MBP; assay type: biochemical; conditions: read-out: IC50, external ADP competition of [3H]-ADP/ATP transport; SLC35B1-Fv-MBP fusion protein in proteoliposomes
T2 construct: TEV site (C); GFP (C); His8 (C); made in house; host or cells: SLC35B1: Saccharomyces cerevisiae FGY217; Fv–MBP: Brevibacillus choshinensis (secreted)
T2 sequence (P78383 1-322): T1 sequence (P78383 1-322)

Nc1ncnc2c1ncn2[C@@H]1O[C@H](COP(=O)(O)OP(=O)(O)O)[C@@H](O)[C@H]1O [ADP] was tested, and the “Normalized [3H]-ADP uptake activity (IC50 curve)” value (shortened to “Normalized”) ([1]; external cold nucleotide 0.01 uM) was 93.6927 and 106.307 and 98.0637, the “Normalized” value ([1]; external cold nucleotide 0.1 uM) was 87.3862 and 98.7018 and 89.3272 and the “Normalized” value ([1]; external cold nucleotide 1 uM) was 48.8239 and 76.0895 and 44.7547. The “Normalized” value ([1]; external cold nucleotide 10 uM) was 22.7468 and 19.9682 and 21.5397, the “Normalized” value ([1]; external cold nucleotide 100 uM) was 8.173 and 6.95 and 8.424 and the IC50 ([1]; wild-type SLC35B1 proteoliposomes) was 1600 nM. For the same molecule, the “[3H]ADP uptake in the presence of cold competitor nucleotide (individual replicates; no-competitor control about 100)” value [2] was -1.767 and -1.033 and 2.879 and 5.424 and 4.368 and 4.176, the “ΔTm (average melting temperature increase)” value ([3]; 1 mM nucleotide, purified wild-type SLC35B1–GFP) was 5.3 °C and the “ΔTm, individual titrations (source data)” value ([3]; 1 mM nucleotide, wild-type SLC35B1–GFP) was 5.49 and 5.09 and 5.45. For the same molecule, the “GFP fluorescence after heating (source data Fig 1B)” value (from here on “GFP fluorescence after heating”) ([3]; temperature 4) was 98.7528 and 95.6204 and 104.931 and 101.189 and 101.102 and 98.4048, the “GFP fluorescence after heating” value ([3]; temperature 10) was 87.2672 and 91.8788 and 95.3593 and 107.889 and 92.923 and 94.9243 and the “GFP fluorescence after heating” value ([3]; temperature 20) was 90.7477 and 91.6178 and 91.1827 and 94.7503 and 88.9204 and 86.6668. The “GFP fluorescence after heating” value ([3]; temperature 30) was 85.9881 and 86.4928 and 88.9204 and 91.0957 and 89.5295 and 91.7048, the “GFP fluorescence after heating” value ([3]; temperature 40) was 42.8735 and 42.656 and 39.9412 and 40.3066 and 43.7088 and 44.6834 and the “GFP fluorescence after heating” value ([3]; temperature 50) was 5.748 and 5.6183 and 5.416 and 5.384 and 5.915 and 6.0377. For the same molecule, the “GFP fluorescence after heating” value ([3]; temperature 60) was 2.3127 and 2.334 and 2.351 and 2.357 and 2.381 and 2.422, the “GFP fluorescence after heating” value ([3]; temperature 70) was 0.4378 and 0.4464 and 0.4526 and 0.4781 and 0.469 and 0.4867 and the “ADP/ATP exchange initial rate” value ([4]; [ADP] 0.2) was 18.1311 nmols / min* mg and 18.3179 nmols / min* mg and 18.8253 nmols / min* mg. For the same molecule, the “ADP/ATP exchange initial rate” value ([4]; [ADP] 0.5) was 28.9111 nmols / min* mg and 29.9816 nmols / min* mg and 28.6714 nmols / min* mg, the “ADP/ATP exchange initial rate” value ([4]; [ADP] 1) was 44.617 nmols / min* mg and 42.2865 nmols / min* mg and 44.5891 nmols / min* mg and the “ADP/ATP exchange initial rate” value ([4]; [ADP] 5) was 114.496 nmols / min* mg and 126.14 nmols / min* mg and 112.107 nmols / min* mg. The “ADP/ATP exchange initial rate” value ([4]; [ADP] 10) was 156.88 nmols / min* mg and 168.644 nmols / min* mg and 150.078 nmols / min* mg, the “ADP/ATP exchange initial rate” value ([4]; [ADP] 20) was 155.074 nmols / min* mg and 183.464 nmols / min* mg and 182.884 nmols / min* mg and the “1H integral (off-resonance spectrum)” value [5] was 1.99E+11. It also gave an STD integral [5] of 3.67E+10 and an IC50 [6] of 2770 ± 410 nM.
